In the supplement of paper PMC10307832:

How the values were obtained:
Assay in all cases: relative viability (nuclei count vs DMSO), 5 days (fraction); higher = more cells survive
Decitabine + Bortezomib = compound: Nc1ncn([C@H]2C[C@H](O)[C@@H](CO)O2)c(=O)n1 [Decitabine] + CC(C)C[C@H](NC(=O)[C@H](Cc1ccccc1)NC(=O)c1cnccn1)B(O)O [Bortezomib] (partner 0.002 µM)
How it was run: (§1)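 Dosing by pin tool came one day after lung cancer cell lines were seeded in 1536-well plates, using either one drug or a fixed anchor-drug dose plus five library-drug doses (not always all listed) in √10 steps. After 5 days, nuclei were counted on 4× images. Relative viability is treated-well nuclei count divided by vehicle-well nuclei count, and values are medians of duplicate plates.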

Decitabine + Luminespib = compound: Nc1ncn([C@H]2C[C@H](O)[C@@H](CO)O2)c(=O)n1 [Decitabine] + CCNC(=O)c1noc(-c2cc(C(C)C)c(O)cc2O)c1-c1ccc(CN2CCOCC2)cc1 [Luminespib] (partner 0.01 µM)
How it was run: as §1

[1] = compound: O=C(C[C@H]1NCCC[C@@H]1O)Cn1cnc2cc(Br)c(Cl)cc2c1=O (racemic) [Halofuginone] + Nc1ncn([C@H]2C[C@H](O)[C@@H](CO)O2)c(=O)n1 [Decitabine] (partner 2 µM)
How it was run: as §1

Halofuginone + Olaparib = compound: O=C(C[C@H]1NCCC[C@@H]1O)Cn1cnc2cc(Br)c(Cl)cc2c1=O (racemic) [Halofuginone] + O=C(c1cc(Cc2n[nH]c(=O)c3ccccc23)ccc1F)N1CCN(C(=O)C2CC2)CC1 [Olaparib] (partner 8 µM)
How it was run: as §1

Cell Line	relative viability (Decitabine + Bortezomib; first compound 0.04 µM)	relative viability (Decitabine + Bortezomib; first compound 0.1265 µM)	relative viability (Decitabine + Bortezomib; first compound 0.4 µM)	relative viability (Decitabine + Bortezomib; first compound 1.265 µM)	relative viability (Decitabine + Bortezomib; first compound 4 µM)	relative viability (Decitabine + Luminespib; first compound 0.04 µM)	relative viability (Decitabine + Luminespib; first compound 0.1265 µM)	relative viability (Decitabine + Luminespib; first compound 0.4 µM)	relative viability (Decitabine + Luminespib; first compound 1.265 µM)	relative viability (Decitabine + Luminespib; first compound 4 µM)	relative viability ([1]; first compound 0.001 µM)	relative viability ([1]; first compound 0.003162 µM)	relative viability ([1]; first compound 0.01 µM)	relative viability ([1]; first compound 0.03162 µM)	relative viability ([1]; first compound 0.1 µM)	relative viability (Halofuginone + Olaparib; first compound 0.001 µM)	relative viability (Halofuginone + Olaparib; first compound 0.003162 µM)	relative viability (Halofuginone + Olaparib; first compound 0.01 µM)	relative viability (Halofuginone + Olaparib; first compound 0.03162 µM)	relative viability (Halofuginone + Olaparib; first compound 0.1 µM)
LCLC-97TM1	0.202	0.268	0.123	0.124	0.11	0.403	0.48	0.322	0.143	0.159	0.263	0.222	0.203	0.19	0.227	0.445	0.314	0.392	0.387	0.233
NCI-H520	0.628	0.595	0.374	0.297	0.221	0.212	0.214	0.214	0.254	0.239	0.529	0.498	0.579	0.607	0.347	0.324	0.291	0.303	0.378	0.187
NCI-H1993	0.925	0.898	0.839	0.777	0.672	0.725	0.826	0.787	0.696	0.674	0.636	0.635	0.52	0.565	0.443	0.949	0.699	1.04	1.02	0.623
NCI-H1437	0.38	0.324	0.313	0.221	0.203	0.995	0.825	0.633	0.445	0.372	0.621	0.555	0.513	0.522	0.522	0.649	0.653	0.619	0.616	0.456
LC-2-ad	0.799	0.779	0.459	0.304	0.329	0.839	0.958	0.782	0.492	0.558	0.7	0.857	0.806	0.892	0.687	0.675	0.697	0.692	0.678	0.669
HARA	0.819	0.7	0.511	0.431	0.308	0.802	0.544	0.34	0.144	0.158	0.664	0.648	0.611	0.591	0.434	1.16	0.885	0.572	0.664	0.345
NCI-H522	–	–	–	–	–	1.07	0.919	0.923	0.652	0.684	0.735	0.673	0.871	0.753	0.717	0.621	0.665	0.631	0.672	0.628
NCI-H1563	0.801	1.02	1.16	0.987	0.908	0.564	0.508	0.428	0.545	0.495	–	–	–	–	–	–	–	–	–	–
NCI-H1703	0.243	0.258	0.2	0.182	0.176	–	–	–	–	–	–	–	–	–	–	0.495	0.483	0.482	0.289	0.2
SK-MES-1	–	–	–	–	–	0.566	0.575	0.331	0.288	0.232	0.377	0.365	0.341	0.341	0.17	0.768	0.69	0.713	0.345	0.174
NCI-H1944	–	–	–	–	–	0.643	0.645	0.633	0.389	0.369	0.4	0.435	0.396	0.407	0.451	0.416	0.407	0.395	0.405	0.402
HCC-78	0.52	0.517	0.435	0.385	0.328	–	–	–	–	–	0.688	0.678	0.667	0.69	0.714	1.01	0.74	0.849	0.858	0.532
NCI-H2170	–	–	–	–	–	0.645	0.641	0.488	0.286	0.253	0.479	0.47	0.453	0.489	0.457	0.64	0.593	0.589	0.605	0.551
NCI-H1648	–	–	–	–	–	–	–	–	–	–	0.518	0.525	0.512	0.559	0.506	1.25	1.15	1.21	0.979	0.936
EBC-1	0.395	0.406	0.29	0.268	0.257	–	–	–	–	–	–	–	–	–	–	0.752	0.706	0.532	0.303	0.169
NCI-H1395	–	–	–	–	–	0.626	0.661	0.568	0.432	0.438	0.662	0.69	0.751	0.631	0.519	0.462	0.469	0.471	0.433	0.388
LK-2	–	–	–	–	–	0.196	0.193	0.156	0.214	0.17	0.309	0.261	0.337	0.328	0.286	0.806	0.623	0.673	0.833	0.607
NCI-H1299	1.01	0.988	0.965	0.867	0.865	–	–	–	–	–	–	–	–	–	–	1	1.05	0.929	0.851	0.418
A549	–	–	–	–	–	–	–	–	–	–	0.338	0.278	0.293	0.257	0.258	0.48	0.413	0.378	0.288	0.262
NCI-H1793	–	–	–	–	–	0.154	0.212	0.19	0.176	0.213	0.511	0.6	0.505	0.5	0.21	0.988	0.852	0.814	0.902	0.294
IA-LM	0.44	0.54	0.257	0.172	0.185	–	–	–	–	–	–	–	–	–	–	0.848	0.913	0.768	0.656	0.305
